Assay results as given in US9125955B2, “99mTc imaging agents and methods of use” (GENERAL ELECTRIC COMPANY, priority 2012, dated 2015).

Test: Ligand stability studies (stock solution at room temperature, LC-MS)
Type: physicochemical
Conditions: stock solution ~300 μg in 4 mL DMSO/H2O [1:1 v/v] (water for other ligands), bench top, LC-MS every 24 h, 3 days
Protocol: Ligand stability studies: A stock solution (prepared by dissolving ˜300 μg of ligand in 4 mL of water; in the cases of Compound 2, 4 mL of DMSO/H2O[1:1 v/v] was used) was stored on bench top at room temperature without extra precautions.

## C/C(=N\O)C(C)(C)NCCN(CCNC(C)(C)/C(C)=N/O)S(=O)(=O)c1ccc(C)cc1 [Compound 2, N,N-bis(2-((E)-3-(hydroxyimino)-2-methylbutan-2-ylamino)ethyl)-4-methylbenzenesulfonamide]
  decomposition of ligand stock solution by LC-MS: no decomposition was observed
